5 compounds from ChEMBL document CHEMBL6182921, “Structural Optimization of Next-Generation TRK Inhibitors against Acquired Drug Resistance Mutations for the Treatment of Solid Tumors” (J Med Chem, 2025) can be followed below.

Assay [1] relates to BaF3. In words: Antiproliferative activity against mouse BaF3 cells harbouring MPRIP-TRKA G595R mutant assessed as inhibition of cell growth measured after 72 hrs by CCK-8 method. The format is functional, cell-based. The conditions noted are these: BaF3, 72 h. In general terms: Tetrazolium assays rely on reduction of a dye to a coloured formazan, in cell work by metabolically active cells.

The target in assay [2] is High affinity nerve growth factor receptor (Homo sapiens, UniProt P04629).
Description: Inhibition of TRKA (unknown origin) incubated for 1 hr in presence of ATP by ELISA method
The test system of assay [3] is BaF3. As to the kind of experiment: cells. The conditions noted are these: Mus musculus, BaF3, 72 h.
Description: Antiproliferative activity against mouse BaF3 cells harbouring MPRIP-TRKA G667C mutant assessed as inhibition of cell growth measured after 72 hrs by CCK-8 method
Assay [4] has as its system BaF3. As to the kind of experiment: cells. To be noted: Mus musculus, BaF3, 72 h. This is another data set of the same source.
Description: Antiproliferative activity against mouse BaF3 cells harbouring xDFG (TRKA-G667C) mutation measured after 72 hrs by Cell-titer glo assay
Assay [5] concerns BaF3. The format is functional, cell-based. To be noted: Mus musculus.
Assay [6] concerns BaF3. In words: Antiproliferative activity against mouse BaF3 cells harbouring MPRIP-TRKA G595R mutant assessed as inhibition of cell growth at 1000 nmol/L measured after 72 hrs by CCK-8 method relative to control. The assay is classed as functional.

Sequence of High affinity nerve growth factor receptor (P04629 whole entry): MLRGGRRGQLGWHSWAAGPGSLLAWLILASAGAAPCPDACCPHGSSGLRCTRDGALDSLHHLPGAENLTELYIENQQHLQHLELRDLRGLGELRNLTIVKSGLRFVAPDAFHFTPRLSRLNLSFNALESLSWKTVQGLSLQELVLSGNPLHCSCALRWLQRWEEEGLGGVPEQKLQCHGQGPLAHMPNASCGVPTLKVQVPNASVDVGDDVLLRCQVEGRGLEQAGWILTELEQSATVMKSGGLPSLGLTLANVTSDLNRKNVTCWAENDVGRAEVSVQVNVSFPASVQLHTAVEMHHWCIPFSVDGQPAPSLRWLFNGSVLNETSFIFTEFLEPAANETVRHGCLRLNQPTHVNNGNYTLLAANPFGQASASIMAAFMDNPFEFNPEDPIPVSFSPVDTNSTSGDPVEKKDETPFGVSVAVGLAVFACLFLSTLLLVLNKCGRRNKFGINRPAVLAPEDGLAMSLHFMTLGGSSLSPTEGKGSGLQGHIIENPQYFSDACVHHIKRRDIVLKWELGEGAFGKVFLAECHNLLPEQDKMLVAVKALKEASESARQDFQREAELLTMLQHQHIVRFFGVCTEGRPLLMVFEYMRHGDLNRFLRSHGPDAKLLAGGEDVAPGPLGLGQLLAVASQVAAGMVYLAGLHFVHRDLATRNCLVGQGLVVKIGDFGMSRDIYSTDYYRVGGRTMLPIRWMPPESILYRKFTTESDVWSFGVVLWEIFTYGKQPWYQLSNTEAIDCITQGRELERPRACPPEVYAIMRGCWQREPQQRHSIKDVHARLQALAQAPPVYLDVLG

In the case of `CC1CN(Cc2ccc(NC(=O)c3cc(N4CCC[C@@H]4c4cc(F)ccc4F)c[nH]c3=O)cc2)CCN1S(=O)(=O)N1CCOCC1` (stereo not given in full), the concentration for half-maximal inhibition (IC50) (in general, the concentration at which inhibition is half-maximal) in the assay on BaF3 [1] was more than 1000 nM; in assay [2], 1.6 nM; in the assay on BaF3 [3], 112 nM.
Turning to `C[C@H]1CNC(=O)c2cnn3ccc(nc23)N[C@H](C)c2cc(F)ccc2O1` [REPOTRECTINIB], it took 15 nM to reach half-maximal inhibition in the assay with BaF3 [4] (IC50).
With `C[C@@H](N)COc1ccc(-c2cnc3ccc(N[C@H](C)c4cccc(F)c4)nn23)cc1` [TALETRECTINIB], in the assay with BaF3 [5], the IC50 was 304 nM.
Regarding `CCCN(CCC)Cc1ccc(NC(=O)c2cc(N3CCC[C@@H]3c3cc(F)ccc3F)c[nH]c2=O)cc1`, the inhibition (commonly the percentage by which the read-out fell short of the control) at 1 µM in the assay with BaF3 [6] amounted to 45.2%. For the same compound, in the assay on BaF3 [3], the half-inhibitory concentration (IC50) came out at 184 nM.
As for `C[C@@H]1CCc2ncc(F)cc2[C@H]2CCCN2c2ccn3ncc(c3n2)C(=O)N1` [SELITRECTINIB], the IC50 with BaF3 [1] came out at 37.9 nM; with BaF3 [3] it was 171 nM; in the assay with BaF3 [4], 124 nM.
